Tests used:
Assay in all cases: Preservative effectiveness test
Assay type in all cases: cell-based
[1] = system: Aspergillus niger ATCC 16404; conditions: Time 28 d; same solution
Experimental: (§1) 0.2 g of QA-beta-CD (QA-beta-CD=3-(trimethylammonio)-2-hydroxypropyl-beta-cyclodextrin chloride, empiric formula: (C6H10-nO5)7(C6H15ONCl)n n=2-5. are added to 170 ml water (nanopure). Then 10.10 g of Sorbitol and 0.2 g of Disodium edetate are added and the pH is adjusted to a value of 7.0-7.4 and water added to make up 200 ml of resulting solution. The solution is filtered through a Corning bottle top filter unit 0.22 μm CA under sterile conditions. The solution has a pH of 7.35 and an osmolality of 307 mOsm/kg (270-330).
(§2) Samples of the solution are inoculated with Escherichia coli ATCC 8739; Pseudomonas aeruginosa ATCC 9027, Staphyloccocus aureus ATCC 6538; Candida albicans ATCC 10231 and Aspergillus niger ATCC 16404, respectively and assayed for presence/growth at the times given in Table 2.

[2] = system: Candida albicans ATCC 10231; conditions: same solution
Experimental: as §1, §2

[3] = system: Escherichia coli ATCC 8739; conditions: same solution
Experimental: as §1, §2

[4] = system: Pseudomonas aeruginosa ATCC 9027; conditions: same solution
Experimental: as §1, §2

[5] = system: Staphyloccocus aureus ATCC 6538; conditions: same solution
Experimental: as §1, §2

For “3-(trimethylammonio)-2-hydroxypropyl-beta-cyclodextrin chloride [QA-beta-CD]”, the “presence/growth of Aspergillus niger ATCC 16404” value [1] was 2. 10^2, the “presence/growth of Candida albicans ATCC 10231” value ([2]; Time 7 d) was <10^2 and the “presence/growth of Candida albicans ATCC 10231” value ([2]; Time 14 d) was <10^2. The “presence/growth of Candida albicans ATCC 10231” value ([2]; Time 28 d) was <10^2, the “presence/growth of Escherichia coli ATCC 8739” value ([3]; Time 6 h) was <10^2 and the “presence/growth of Escherichia coli ATCC 8739” value ([3]; Time 24 h) was <10^2. The “presence/growth of Escherichia coli ATCC 8739” value ([3]; Time 7 d) was <10^2, the “presence/growth of Escherichia coli ATCC 8739” value ([3]; Time 28 d) was <10^2 and the “presence/growth of Pseudomonas aeruginosa ATCC 9027” value ([4]; Time 6 h) was <10^2. For the same substance, the “presence/growth of Pseudomonas aeruginosa ATCC 9027” value ([4]; Time 24 h) was <10^2, the “presence/growth of Pseudomonas aeruginosa ATCC 9027” value ([4]; Time 7 d) was <10^2 and the “presence/growth of Pseudomonas aeruginosa ATCC 9027” value ([4]; Time 28 d) was <10^2. The “presence/growth of Staphyloccocus aureus ATCC 6538” value ([5]; Time 24 h) was <10^2, the “presence/growth of Staphyloccocus aureus ATCC 6538” value ([5]; Time 7 d) was <10^2 and the “presence/growth of Staphyloccocus aureus ATCC 6538” value ([5]; Time 28 d) was <10^2.
